Key:
Format in all cases: in vivo
Salvinia molesta = assay: Herbicidal efficacy in Indonesia, applied 2 weeks after transplanting (Table 6)
Description: (§1) Methyl 2-[[[[(4-methoxy-6-methyl-1,3,5-triazin-2-yl)amino]carbonyl]amino]sulfonyl]benzoate (Compound 1) and mixtures thereof with other compounds were applied as a spray (using a hand sprayer) to rice (either transplanted or direct seeded) in several rice growing areas in Southeast Asia and in the U.S. Tables 1-28 contain the results of these tests and clearly exemplify the utility of this invention. The details of each application are included in the appropriate table. [drawing 2]

Monochoria vaginalis = assay: as above
Description: as §1

Echinochloa crus-galli = assay: as above
Description: as §1

Scirpus juncoides = assay: as above
Description: as §1

rice = assay: Herbicidal efficacy in relation to application timing in Indonesia (Table 5)
Description: as §1

[1] = 3 GAI/HA, 2 weeks after application
[2] = 3 GAI/HA, 5 weeks after application
[3] = 3 GAI/HA, 7 weeks after application
[4] = 4 GAI/HA, 2 weeks after application
[5] = 4 GAI/HA, 5 weeks after application
[6] = 4 GAI/HA, 7 weeks after application
[7] = 6 GAI/HA, 2 weeks after application
[8] = 6 GAI/HA, 5 weeks after application
[9] = 6 GAI/HA, 7 weeks after application
[10] = 8 GAI/HA, 2 weeks after application
[11] = 8 GAI/HA, 5 weeks after application
[12] = 8 GAI/HA, 7 weeks after application

## COC(=O)c1ccccc1S(=O)(=O)NC(=O)Nc1nc(C)nc(OC)n1 [Compound 1, Methyl 2-[[[[(4-methoxy-6-methyl-1,3,5-triazin-2-yl)amino]carbonyl]amino]sulfonyl]benzoate]
Salvinia molesta; [1]
  % CONTROL SM: 30%
Salvinia molesta; [2]
  % CONTROL SM: 70%
Salvinia molesta; [3]
  % CONTROL SM: 80%
Salvinia molesta; [4]
  % CONTROL SM: 40%
Salvinia molesta; [5]
  % CONTROL SM: 70%
Salvinia molesta; [6]
  % CONTROL SM: 80%
Salvinia molesta; [7]
  % CONTROL SM: 30%
Salvinia molesta; [8]
  % CONTROL SM: 90%
Salvinia molesta; [9]
  % CONTROL SM: 90%
Salvinia molesta; [10]
  % CONTROL SM: 40%
Salvinia molesta; [11]
  % CONTROL SM: 80%
Salvinia molesta; [12]
  % CONTROL SM: 90%
Monochoria vaginalis; [1]
  % CONTROL MV: 100%
Monochoria vaginalis; [2]
  % CONTROL MV: 100%
Monochoria vaginalis; [3]
  % CONTROL MV: 100%
Monochoria vaginalis; [4]
  % CONTROL MV: 90%
Monochoria vaginalis; [5]
  % CONTROL MV: 100%
Monochoria vaginalis; [6]
  % CONTROL MV: 100%
Monochoria vaginalis; [7]
  % CONTROL MV: 100%
Monochoria vaginalis; [8]
  % CONTROL MV: 100%
Monochoria vaginalis; [9]
  % CONTROL MV: 100%
Monochoria vaginalis; [10]
  % CONTROL MV: 100%
Monochoria vaginalis; [11]
  % CONTROL MV: 100%
Monochoria vaginalis; [12]
  % CONTROL MV: 100%
Echinochloa crus-galli; [1]
  % CONTROL EC: 20%
Echinochloa crus-galli; [2]
  % CONTROL EC: 30%
Echinochloa crus-galli; [3]
  % CONTROL EC: 0%
Echinochloa crus-galli; [4]
  % CONTROL EC: 20%
Echinochloa crus-galli; [5]
  % CONTROL EC: 30%
Echinochloa crus-galli; [6]
  % CONTROL EC: 0%
Echinochloa crus-galli; [7]
  % CONTROL EC: 20%
Echinochloa crus-galli; [8]
  % CONTROL EC: 30%
Echinochloa crus-galli; [9]
  % CONTROL EC: 0%
Echinochloa crus-galli; [10]
  % CONTROL EC: 20%
Echinochloa crus-galli; [11]
  % CONTROL EC: 30%
Echinochloa crus-galli; [12]
  % CONTROL EC: 0%
Scirpus juncoides; [1]
  % CONTROL SJ: 60%
Scirpus juncoides; [2]
  % CONTROL SJ: 90%
Scirpus juncoides; [3]
  % CONTROL SJ: 70%
Scirpus juncoides; [4]
  % CONTROL SJ: 60%
Scirpus juncoides; [5]
  % CONTROL SJ: 100%
Scirpus juncoides; [6]
  % CONTROL SJ: 70%
Scirpus juncoides; [7]
  % CONTROL SJ: 90%
Scirpus juncoides; [8]
  % CONTROL SJ: 100%
Scirpus juncoides; [9]
  % CONTROL SJ: 80%
Scirpus juncoides; [10]
  % CONTROL SJ: 80%
Scirpus juncoides; [11]
  % CONTROL SJ: 100%
Scirpus juncoides; [12]
  % CONTROL SJ: 80%
rice; 3 WAT, 2 GAI/HA, evaluation 1
  % CONTROL RICE: 0%
rice; 3 WAT, 2 GAI/HA, evaluation 2
  % CONTROL RICE: 0%
rice; 3 WAT, 2 GAI/HA, evaluation 3
  % CONTROL RICE: 0%
rice; 3 WAT, 3 GAI/HA, evaluation 1
  % CONTROL RICE: 0%
rice; 3 WAT, 3 GAI/HA, evaluation 2
  % CONTROL RICE: 0%
rice; 3 WAT, 3 GAI/HA, evaluation 3
  % CONTROL RICE: 0%
rice; 3 WAT, 4 GAI/HA, evaluation 1
  % CONTROL RICE: 0%
rice; 3 WAT, 4 GAI/HA, evaluation 2
  % CONTROL RICE: 0%
rice; 3 WAT, 4 GAI/HA, evaluation 3
  % CONTROL RICE: 0%
rice; 3 WAT, 6 GAI/HA, evaluation 1
  % CONTROL RICE: 0%
rice; 3 WAT, 6 GAI/HA, evaluation 2
  % CONTROL RICE: 0%
rice; 3 WAT, 6 GAI/HA, evaluation 3
  % CONTROL RICE: 0%
rice; 3 WAT, 8 GAI/HA, evaluation 1
  % CONTROL RICE: 0%
rice; 3 WAT, 8 GAI/HA, evaluation 2
  % CONTROL RICE: 0%
rice; 3 WAT, 8 GAI/HA, evaluation 3
  % CONTROL RICE: 0%
rice; 4 WAT, 2 GAI/HA, evaluation 1
  % CONTROL RICE: 0%
rice; 4 WAT, 2 GAI/HA, evaluation 2
  % CONTROL RICE: 0%
rice; 4 WAT, 2 GAI/HA, evaluation 3
  % CONTROL RICE: 0%
rice; 4 WAT, 3 GAI/HA, evaluation 1
  % CONTROL RICE: 0%
rice; 4 WAT, 3 GAI/HA, evaluation 2
  % CONTROL RICE: 10%
rice; 4 WAT, 3 GAI/HA, evaluation 3
  % CONTROL RICE: 0%

From patent EP0377642B1, “HERBICIDES FOR WEED CONTROL IN RICE” (E.I. DU PONT DE NEMOURS AND COMPANY, priority 1987, dated 1989)
